Consider 2 compounds from patent publication US20090118471A1, “NOVEL COUMARIN DERIVATIVES” (The University of Tokyo, priority 2006, published 2009).

Series [1] is described as follows: Fluorescence intensity after reaction with N-acetylcysteine. Type of series: physicochemical. Particulars: 5 μmol/L; after reaction with one molecule of cysteine (NAC); sodium phosphate buffer pH 7.4, 0.5% DMSO. Here is the method:
(§1) Compound 8 at a concentration of 5 μmol/L was added with N-acetylcysteine (NAC), Ac-AECACRA-OH peptide, or Ac-AECAACRA-OH peptide (C-terminus is carboxyl group, N-terminus is acetyl group (Ac), and amino acids are represented by the single letter codes), and fluorescence intensity was measured. For the reaction mixture, a 100 mmol/L sodium phosphate buffer (pH=7.4, containing 0.5% dimethyl sulfoxide as a cosolvent) was used.

A short description of series [2]: Fluorescence intensity after reaction with peptides containing two neighboring cysteine residues. The class given is physicochemical. Conditions: 5 μmol/L; after reaction with peptides containing two neighboring cysteine residues in the same molecule; sodium phosphate buffer pH 7.4, 0.5% DMSO. How it is done:
as §1

For series [3] the following is noted: in 0.1 mol/L sulfuric acid solution; value taken as standard; cited from earlier work.

Where a name gives a salt, the structure may show the parent alone.

Consider `O=C(Cc1cc(=O)oc2cc(O)ccc12)NC1CC(N2C(=O)C=CC2=O)CC(N2C(=O)C=CC2=O)C1` (stereo not drawn) [Compound 8], for which the figures for the Fluorescence result in series [1] and in series [2] were “substantially non-fluorescent” and “intensely fluorescent adducts”, respectively.
Take `C=C[C@H]1C[N@@]2CC[C@H]1C[C@H]2[C@H](O)c1ccnc2ccc(OC)cc12` [quinine sulfate]: the “Fluorescence quantum yield (reference standard)” value in series [3] was 0.577.
